Where a chain is given by its changes, count along the chain named.
Key:
Assay in all cases: microscale thermophoresis
Type in all cases: binding
OsNAT9 (OsNAT9-GFP) [1] = biological target: T1, OsNAT9 (OsNAT9-GFP) (Oryza sativa, UniProt Q10ET9, G349A)
T1 sequence (Q10ET9 1-527 G349A): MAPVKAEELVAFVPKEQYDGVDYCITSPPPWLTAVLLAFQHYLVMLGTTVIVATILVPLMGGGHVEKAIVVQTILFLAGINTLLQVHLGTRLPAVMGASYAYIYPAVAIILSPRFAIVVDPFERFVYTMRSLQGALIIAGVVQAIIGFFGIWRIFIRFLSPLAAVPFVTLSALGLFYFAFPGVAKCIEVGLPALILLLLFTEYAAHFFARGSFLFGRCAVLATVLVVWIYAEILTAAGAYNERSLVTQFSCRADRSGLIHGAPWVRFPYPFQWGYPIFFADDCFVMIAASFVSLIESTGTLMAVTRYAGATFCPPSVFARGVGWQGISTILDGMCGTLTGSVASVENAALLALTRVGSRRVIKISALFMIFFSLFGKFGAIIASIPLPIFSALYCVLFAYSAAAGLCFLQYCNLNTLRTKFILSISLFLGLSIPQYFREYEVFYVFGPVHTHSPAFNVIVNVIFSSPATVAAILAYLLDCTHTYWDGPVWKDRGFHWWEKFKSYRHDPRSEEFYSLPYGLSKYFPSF

OsNAT9 (OsNAT9-GFP) [2] = biological target: T2, OsNAT9 (OsNAT9-GFP) (Oryza sativa, UniProt Q10ET9, S344A)
T2 sequence (Q10ET9 1-527 S344A): T1 sequence (Q10ET9 1-527 G349A) with S344A, A349G

OsNAT9 (OsNAT9-GFP) [3] = biological target: T3, OsNAT9 (OsNAT9-GFP) (Oryza sativa, UniProt Q10ET9, E346A)
T3 sequence (Q10ET9 1-527 E346A): T1 sequence (Q10ET9 1-527 G349A) with E346A, A349G

OsNAT9 (OsNAT9-GFP) [4] = biological target: T4, OsNAT9 (OsNAT9-GFP) (Oryza sativa, UniProt Q10ET9)
T4 sequence (Q10ET9 1-527): T1 sequence (Q10ET9 1-527 G349A) with A349G

Row | Kd (OsNAT9 (OsNAT9-GFP) [1]) | Kd (OsNAT9 (OsNAT9-GFP) [2]) | Kd (OsNAT9 (OsNAT9-GFP) [3]) | Kd (OsNAT9 (OsNAT9-GFP) [4]) | SMILES
1 | 0.55 ± 0.53 nM | 101 ± 27.6 nM | 80.7 ± 6.06 nM | 0.28 ± 0.23 nM | O=C1O[C@H]([C@@H](O)CO)C(O)=C1O [AsA, ascorbic acid]
2 |  |  |  | 0.39 ± 0.11 nM | O=c1[nH]c(=O)c2[nH]cnc2[nH]1 [xanthine]

Source: paper PMC12080319 (The Plant Journal, 2025)
